Experimental data as given in the supplement of paper PMC10307832.

compound: CN1CCN(CC1)C2=CC(=C(C=C2)NC3=NC=C4C(=N3)N(C5=CC=CC=C5C(=O)N4C)C)OC [XMD8-85] + CC(=O)Nc1cccc(-n2c(=O)n(C3CC3)c(=O)c3c(Nc4ccc(I)cc4F)n(C)c(=O)c(C)c32)c1 [Trametinib] (partner 0.02 µM); assay: relative viability (nuclei count vs DMSO), 5 days (fraction); higher = more cells survive; settings: first compound 8 µM
Method in brief: (§1)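 Relative viability is defined as nuclei in treated wells over nuclei in vehicle wells. Duplicate plates were run and medians reported. Lung cancer cell lines in 1536-well plates were dosed by pin tool one day after seeding, with one drug or with a fixed anchor-drug dose plus five library-drug doses (not always all listed) in √10 steps, and nuclei were counted after 5 days.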

Cell Line	relative viability
NCI-H2170	0.702
NCI-H2228	0.181
NCI-H2342	0.991
SK-MES-1	0.304
SW 900	0.759

compound: CN1CCN(CC1)C2=CC(=C(C=C2)NC3=NC=C4C(=N3)N(C5=CC=CC=C5C(=O)N4C)C)OC [XMD8-85] + Nc1ncn([C@H]2C[C@H](O)[C@@H](CO)O2)c(=O)n1 [Decitabine] (partner 2 µM); assay: as above; settings: first compound 0.08 µM
Method in brief: as §1

Cell Line	relative viability
201T	0.867
A549	0.296
A-427	0.601
ABC-1	1.42
BEN	0.761
COR-L23	0.513
ChaGo-K-1	0.553
EKVX	0.536
EMC-BAC-2	0.873
EPLC-272H	0.347
H3255	0.838
HARA	0.657
HCC-15	0.537
HCC-44	0.976
HCC-78	0.672
HCC-366	0.342

Cell Line	relative viability
HCC-827	0.389
HOP-62	0.235
LC-2-ad	0.734
LCLC-97TM1	0.222
LCLC-103H	0.789
LK-2	0.255
NCI-H358	0.219
NCI-H522	0.739
NCI-H1395	0.609
NCI-H1648	0.478
NCI-H1944	0.451
NCI-H2170	0.478
NCI-H2342	0.7
SK-MES-1	0.348
SW 900	0.505

same assay, conditions: first compound 0.253 µM

Cell Line	relative viability
201T	0.865
A549	0.252
A-427	0.596
ABC-1	1.09
BEN	0.671
COR-L23	0.397
COR-L 105	0.731
ChaGo-K-1	0.521
EKVX	0.32
EMC-BAC-2	0.961
EPLC-272H	0.36
H3255	0.682
HARA	0.647
HCC-15	0.642
HCC-44	0.979
HCC-78	0.694
HCC-366	0.302

Cell Line	relative viability
HCC-827	0.356
HOP-62	0.199
LC-2-ad	0.774
LCLC-97TM1	0.206
LCLC-103H	0.763
LK-2	0.295
NCI-H358	0.243
NCI-H522	0.669
NCI-H1395	0.762
NCI-H1648	0.447
NCI-H1793	0.473
NCI-H1944	0.404
NCI-H2170	0.478
NCI-H2342	0.709
SK-MES-1	0.353
SW 900	0.45

same assay, conditions: first compound 0.8 µM

Cell Line	relative viability
201T	0.883
A549	0.237
A-427	0.546
ABC-1	1.49
BEN	0.757
COR-L23	0.506
COR-L 105	0.7
ChaGo-K-1	0.551
EKVX	0.33
EPLC-272H	0.314
